Test results: PubChem BioAssay AID2060496 (Molecular Pharmacology Branch, DTP, NCI, 2025)

Tested on: 276233-004-R-J1-PDC complex spheroid viability
Assay: Anticancer human tumor 276233-004-R-J1-PDC patient-derived colon adenocarcinoma cell line growth inhibition [GQUAD]
Conditions: for IC50: curve of first compound; for viability, T/C: stronger effect = lower value
Excerpt: DNA G-quadruplex Stabilizer Agents in Combinations in Complex Spheroids
A high-throughput screen of multi-cell type tumor spheroids was designed to identify active combinations of DNA G-quadruplex stabilizer agents and targeted small molecules. Complex spheroids include a stromal component modeled by human endothelial cells (HUVEC) and fibroblasts modeled by human mesenchymal stem cells (MSCs). The concentration ranges selected for each drug and investigational agent were based upon clinically achievable concentrations if the clinical Cmax of the agent was known.
Compounds. The drugs and investigational agents: pidnarulex (CX-5461; NSC782164), APTO-253 (NSC789042), BRACO-19 (NSC847499), peposertib (NSC802822), ceralasertib (NSC780249), elimusertib (NSC800525), camonsertib (NSC841442), AZD-1390 (NSC803789), olaparib (NSC753686), talazoparib (NSC767125), ART-558 (NSC835418), sotorasib (NSC818433), MRTX-1133 (NSC836407), SN-38 (NSC673596), topotecan (NSC609699), etoposide (NSC141540), doxorubicin (NSC123127), gemcitabine (NSC613327), 5-fluorouracil (NSC19893), paclitaxel (NSC125973), vemurafenib (NSC761431), panobinostat (NSC761190), R-306465 (JNJ-16241199; NSC773264), adavosertib (NSC754352), TP-3654 (NSC805149), carboplatin (NSC241240), KSQ-4279 (NSC840948), and staurosporine (NSC755774) were obtained from the National Cancer Institute (NCI) Developmental Therapeutics Program Chemical Repository (34). The FDA-approved anticancer drug set is available from the NCI Developmental Therapeutics Program. […] The stock solutions were prepared in dimethyl sulfoxide (DMSO, Sigma-Aldrich, St. Louis, MO, cat. D2650) at 800-fold the tested concentration and stored at -70 degrees C prior to their use. All drugs and investigational agents were tested over a range starting from a high concentration at or near the clinical Cmax and decreasing in half-log increments. If the clinical Cmax for an agent had not been determined, the highest concentration tested was 10 microM.
2.3 Cell Culture. All cells were maintained in an incubator at 37 degrees C and 5% CO2 with 95% humidity. The PDC lines were cultured according to standard operating procedures established by the NCI PDMR. All PDCs were thawed and cultured in Matrigel-coated flasks prepared with a working solution of 1X Ham's F-12 nutrient mix, without supplementation (Invitrogen, cat. 11765054), 100 U/mL penicillin-streptomycin (Invitrogen, cat. 15140122), and 2.5% Matrigel (Corning Inc., cat. 354248) for the first three passages. The 857933-349-R-J2-PDC line was cultured in 6C/Colon 1B media, which includes advanced DMEM/F-12 (Thermo Fisher Scientific, cat. 12634028), 10 mM HEPES (Thermo Fisher Scientific, cat. 15630080), 1X GlutaMAX supplement (Thermo Fisher Scientific, cat. 35050061), 0.1 mg/mL primocin (InvivoGen, cat. ant-pm-2), 10% defined fetal bovine serum, heat inactivated (HyClone Laboratories Inc., cat. SH30070.03HI), 50% L-WRN conditioned media (ATCC, cat. CRL-3276), 1.25 mM N-Acetyl-L-cysteine (Sigma-Aldrich, cat. A9165), 10 mM nicotinamide (Sigma-Aldrich, cat. N0636), 1X B-27 supplement (Thermo Fisher Scientific, cat. 17504044), 1X N-2 supplement (Thermo Fisher Scientific, cat. 17502048), 10 microM Y-27632 dihydrochloride (Tocris Bioscience, cat. 1254), and 50 ng/mL human EGF recombinant protein (Thermo Fisher Scientific, cat. PHG0311). The 485176-168-R4-J1-PDC line was cultured in Panc media, which includes all 6C/Colon 1B media components plus 100 ng/mL human FGF-10 (Thermo Fisher Scientific, cat. 100-26), 500 nM SB-431542 (Selleckchem, cat. S1067), and gastrin (Tocris, cat. 3006).
[…]

[1] = second compound 0.0316 µM, first compound 0.0316 µM
[2] = second compound 0.0316 µM, first compound 0.1 µM
[3] = second compound 0.0316 µM, first compound 0.316 µM
[4] = second compound 0.0316 µM, first compound 1 µM
[5] = second compound 0.0316 µM, first compound 3.16 µM
[6] = second compound 0.0316 µM, first compound 10 µM
[7] = second compound 0.1 µM, first compound 0.0316 µM
[8] = second compound 0.1 µM, first compound 0.1 µM
[9] = second compound 0.1 µM, first compound 0.316 µM
[10] = second compound 0.1 µM, first compound 1 µM
[11] = second compound 0.1 µM, first compound 3.16 µM
[12] = second compound 0.1 µM, first compound 10 µM
[13] = second compound 0.316 µM, first compound 0.0316 µM
[14] = second compound 0.316 µM, first compound 0.1 µM
[15] = second compound 0.316 µM, first compound 0.316 µM
[16] = second compound 0.316 µM, first compound 1 µM
[17] = second compound 0.316 µM, first compound 3.16 µM
[18] = second compound 0.316 µM, first compound 10 µM
[19] = second compound 1 µM, first compound 0.0316 µM
[20] = second compound 1 µM, first compound 0.1 µM
[21] = second compound 1 µM, first compound 0.316 µM
[22] = second compound 1 µM, first compound 1 µM
[23] = second compound 1 µM, first compound 3.16 µM
[24] = second compound 1 µM, first compound 10 µM
[25] = second compound 3.16 µM, first compound 0.0316 µM
[26] = second compound 3.16 µM, first compound 0.1 µM
[27] = second compound 3.16 µM, first compound 0.316 µM
[28] = second compound 3.16 µM, first compound 1 µM
[29] = second compound 3.16 µM, first compound 3.16 µM
[30] = second compound 3.16 µM, first compound 10 µM
[31] = second compound 10 µM, first compound 0.0316 µM
[32] = second compound 10 µM, first compound 0.1 µM
[33] = second compound 10 µM, first compound 0.316 µM
[34] = second compound 10 µM, first compound 1 µM
[35] = second compound 10 µM, first compound 3.16 µM
[36] = second compound 10 µM, first compound 10 µM
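Further: spheroids exposed to drugs for seven days.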
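Wherever viability, T/C is given: 100% = DMSO vehicle control viability.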

**Q.** With C=CC(=O)N1CCN(c2nc(=O)n(-c3c(C)ccnc3C(C)C)c3nc(-c4c(O)cccc4F)c(F)cc23)C(C)C1 (centres undefined) + CN(C)c1ccc(Nc2c3ccc(NC(=O)CCN4CCCC4)cc3nc3cc(NC(=O)CCN4CCCC4)ccc23)cc1 as the molecule, how does the IC50 (second compound 0.0316 µM) read?
**A.** > 10 µM

**Q.** What about the IC50 (second compound 0.1 µM) of the same molecule?
**A.** > 10 µM

**Q.** What about the IC50 (second compound 0.316 µM) of the same molecule?
**A.** > 10 µM

**Q.** What about the IC50 (second compound 1 µM) of the same molecule?
**A.** > 10 µM

**Q.** And the IC50 (second compound 3.16 µM)?
**A.** < 0.0316 µM

**Q.** What about the IC50 (second compound 10 µM) of the same molecule?
**A.** > 10 µM

**Q.** And the viability, T/C [1]?
**A.** 93.1%

**Q.** And the viability, T/C [2]?
**A.** 90.4%

**Q.** And the viability, T/C [3]?
**A.** 106%

**Q.** And the viability, T/C [4]?
**A.** 97.6%

**Q.** And the viability, T/C [5]?
**A.** 102%

**Q.** And the viability, T/C [6]?
**A.** 87.6%

**Q.** What about the viability, T/C [7] of the same molecule?
**A.** 90%

**Q.** What about the viability, T/C [8] of the same molecule?
**A.** 75.8%

**Q.** What about the viability, T/C [9] of the same molecule?
**A.** 80.6%

**Q.** What about the viability, T/C [10] of the same molecule?
**A.** 73.9%

**Q.** What about the viability, T/C [11] of the same molecule?
**A.** 77%

**Q.** And the viability, T/C [12]?
**A.** 75.2%

**Q.** And the viability, T/C [13]?
**A.** 67.9%

**Q.** What about the viability, T/C [14] of the same molecule?
**A.** 82.1%

**Q.** And the viability, T/C [15]?
**A.** 68.6%

**Q.** And the viability, T/C [16]?
**A.** 58.5%

**Q.** And the viability, T/C [17]?
**A.** 71%

**Q.** What about the viability, T/C [18] of the same molecule?
**A.** 68.9%

**Q.** What about the viability, T/C [19] of the same molecule?
**A.** 55.4%

**Q.** What about the viability, T/C [20] of the same molecule?
**A.** 47.8%

**Q.** And the viability, T/C [21]?
**A.** 62.2%

**Q.** What about the viability, T/C [22] of the same molecule?
**A.** 56.6%

**Q.** And the viability, T/C [23]?
**A.** 59.1%

**Q.** What about the viability, T/C [24] of the same molecule?
**A.** 63.6%

**Q.** And the viability, T/C [25]?
**A.** 48.2%

**Q.** And the viability, T/C [26]?
**A.** 52.1%

**Q.** What about the viability, T/C [27] of the same molecule?
**A.** 42.3%

**Q.** What about the viability, T/C [28] of the same molecule?
**A.** 44.6%

**Q.** And the viability, T/C [29]?
**A.** 55.8%

**Q.** And the viability, T/C [30]?
**A.** 45.3%

**Q.** And the viability, T/C [31]?
**A.** 50.6%

**Q.** And the viability, T/C [32]?
**A.** 55.1%

**Q.** And the viability, T/C [33]?
**A.** 43.5%

**Q.** And the viability, T/C [34]?
**A.** 53.5%

**Q.** And the viability, T/C [35]?
**A.** 62.6%

**Q.** What about the viability, T/C [36] of the same molecule?
**A.** 47.8%

**Q.** With Cc1cccc(N(C)C(=O)C2C(O)CCN2c2nc(C)cc(C(F)(F)F)c2C#N)c1 (centres undefined) + CN(C)c1ccc(Nc2c3ccc(NC(=O)CCN4CCCC4)cc3nc3cc(NC(=O)CCN4CCCC4)ccc23)cc1 as the molecule, how does the IC50 (second compound 0.0316 µM) read?
**A.** > 10 µM

**Q.** What about the IC50 (second compound 0.1 µM) of the same molecule?
**A.** > 10 µM

**Q.** What about the IC50 (second compound 0.316 µM) of the same molecule?
**A.** > 10 µM

**Q.** And the IC50 (second compound 1 µM)?
**A.** > 10 µM

**Q.** What about the IC50 (second compound 3.16 µM) of the same molecule?
**A.** > 10 µM

**Q.** And the IC50 (second compound 10 µM)?
**A.** < 0.0316 µM

**Q.** What about the viability, T/C [1] of the same molecule?
**A.** 77.3%

**Q.** What about the viability, T/C [2] of the same molecule?
**A.** 74.1%

**Q.** And the viability, T/C [3]?
**A.** 86.7%

**Q.** And the viability, T/C [4]?
**A.** 97.1%

**Q.** What about the viability, T/C [5] of the same molecule?
**A.** 98.1%

**Q.** What about the viability, T/C [6] of the same molecule?
**A.** 101%

**Q.** And the viability, T/C [7]?
**A.** 96.8%

**Q.** And the viability, T/C [8]?
**A.** 98.1%

**Q.** And the viability, T/C [9]?
**A.** 89.5%

**Q.** What about the viability, T/C [10] of the same molecule?
**A.** 89.2%

**Q.** What about the viability, T/C [11] of the same molecule?
**A.** 86.5%

**Q.** And the viability, T/C [12]?
**A.** 96%

**Q.** And the viability, T/C [13]?
**A.** 71.2%

**Q.** And the viability, T/C [14]?
**A.** 75.4%

**Q.** What about the viability, T/C [15] of the same molecule?
**A.** 73.2%

**Q.** And the viability, T/C [16]?
**A.** 50.7%

**Q.** What about the viability, T/C [17] of the same molecule?
**A.** 60.5%

**Q.** What about the viability, T/C [18] of the same molecule?
**A.** 68.1%

**Q.** And the viability, T/C [19]?
**A.** 57.3%

**Q.** And the viability, T/C [20]?
**A.** 47.1%

**Q.** What about the viability, T/C [21] of the same molecule?
**A.** 63.1%

**Q.** What about the viability, T/C [22] of the same molecule?
**A.** 57.6%

**Q.** What about the viability, T/C [23] of the same molecule?
**A.** 51.2%

**Q.** And the viability, T/C [24]?
**A.** 64.9%

**Q.** And the viability, T/C [25]?
**A.** 51%

**Q.** And the viability, T/C [26]?
**A.** 49.3%

**Q.** What about the viability, T/C [27] of the same molecule?
**A.** 50.6%

**Q.** And the viability, T/C [28]?
**A.** 55.9%

**Q.** And the viability, T/C [29]?
**A.** 65.8%

**Q.** And the viability, T/C [30]?
**A.** 68.7%

**Q.** And the viability, T/C [31]?
**A.** 39.7%

**Q.** What about the viability, T/C [32] of the same molecule?
**A.** 51.5%

**Q.** And the viability, T/C [33]?
**A.** 41.2%

**Q.** What about the viability, T/C [34] of the same molecule?
**A.** 72.6%

**Q.** And the viability, T/C [35]?
**A.** 63.1%

**Q.** And the viability, T/C [36]?
**A.** 54.8%
